Experimental data: the supplement of paper PMC10307832

Experiments:
Assay in all cases: relative viability (nuclei count vs DMSO), 5 days (fraction); higher = more cells survive
BEN = tested on: BEN
Outline: (§1)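 For relative viability, nuclei counts in treated wells were divided by those in vehicle wells. Lung cancer cell lines had been pin-tool dosed in 1536-well plates the day after seeding and cultured for 5 days, then fixed and stained in one step (final 0.05% Triton X-100, 1% formaldehyde, 1 ug/ml Hoechst) and imaged at 4×. Doses were one drug alone or a fixed anchor-drug dose plus five library-drug doses (not always all listed) in √10 steps, and values are duplicate-plate medians.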

EKVX = tested on: EKVX
Outline: as §1

HARA = tested on: HARA
Outline: as §1

HCC-366 = tested on: HCC-366
Outline: as §1

HCC-827 = tested on: HCC-827
Outline: as §1

LC-2-ad = tested on: LC-2-ad
Outline: as §1

LOU-NH91 = tested on: LOU-NH91
Outline: as §1

NCI-H1355 = tested on: NCI-H1355
Outline: as §1

NCI-H1395 = tested on: NCI-H1395
Outline: as §1

NCI-H1437 = tested on: NCI-H1437
Outline: as §1

NCI-H1734 = tested on: NCI-H1734
Outline: as §1

NCI-H1792 = tested on: NCI-H1792
Outline: as §1

NCI-H2009 = tested on: NCI-H2009
Outline: as §1

NCI-H2087 = tested on: NCI-H2087
Outline: as §1

NCI-H2170 = tested on: NCI-H2170
Outline: as §1

NCI-H2228 = tested on: NCI-H2228
Outline: as §1

NCI-H2405 = tested on: NCI-H2405
Outline: as §1

NCI-H596 = tested on: NCI-H596
Outline: as §1

NCI-H647 = tested on: NCI-H647
Outline: as §1

NCI-H661 = tested on: NCI-H661
Outline: as §1

SK-LU-1 = tested on: SK-LU-1
Outline: as §1

SK-MES-1 = tested on: SK-MES-1
Outline: as §1

Work on C=C1C(=O)O[C@@H](CCCCCCCC)[C@@H]1C(=O)O [C-75] + CS(=O)(=O)CCNCc1ccc(-c2ccc3ncnc(Nc4ccc(OCc5cccc(F)c5)c(Cl)c4)c3c2)o1 [Lapatinib] (partner 2 µM) yielded a relative viability (BEN; first compound 0.08 µM) of 0.793, a relative viability (BEN; first compound 0.253 µM) of 0.785 and a relative viability (BEN; first compound 0.8 µM) of 0.682. It also gave a relative viability (BEN; first compound 2.53 µM) of 0.645, a relative viability (BEN; first compound 8 µM) of 0.694 and a relative viability (EKVX; first compound 0.08 µM) of 0.266. For the same molecule, the relative viability (EKVX; first compound 0.253 µM) was 0.211, the relative viability (EKVX; first compound 0.8 µM) was 0.224 and the relative viability (EKVX; first compound 2.53 µM) was 0.184. For the same molecule, the relative viability (EKVX; first compound 8 µM) was 0.214, the relative viability (HARA; first compound 0.08 µM) was 0.619 and the relative viability (HARA; first compound 0.253 µM) was 0.511. The relative viability (HARA; first compound 0.8 µM) was 0.646, the relative viability (HARA; first compound 8 µM) was 0.825 and the relative viability (HCC-366; first compound 0.08 µM) was 1.04. For the same molecule, the relative viability (HCC-366; first compound 0.253 µM) was 1.19, the relative viability (HCC-366; first compound 0.8 µM) was 1 and the relative viability (HCC-366; first compound 8 µM) was 0.872. It also gave a relative viability (HCC-827; first compound 0.08 µM) of 0.23, a relative viability (HCC-827; first compound 0.253 µM) of 0.235 and a relative viability (HCC-827; first compound 0.8 µM) of 0.212. It also gave a relative viability (HCC-827; first compound 2.53 µM) of 0.191, a relative viability (HCC-827; first compound 8 µM) of 0.205 and a relative viability (LC-2-ad; first compound 0.08 µM) of 0.982. It also gave a relative viability (LC-2-ad; first compound 0.253 µM) of 0.919, a relative viability (LC-2-ad; first compound 0.8 µM) of 0.898 and a relative viability (LC-2-ad; first compound 8 µM) of 1.01. For the same molecule, the relative viability (LOU-NH91; first compound 0.08 µM) was 0.821, the relative viability (LOU-NH91; first compound 0.253 µM) was 0.833 and the relative viability (LOU-NH91; first compound 0.8 µM) was 0.657. The relative viability (LOU-NH91; first compound 2.53 µM) was 0.533, the relative viability (LOU-NH91; first compound 8 µM) was 0.716 and the relative viability (NCI-H1355; first compound 0.08 µM) was 0.939. For the same molecule, the relative viability (NCI-H1355; first compound 0.253 µM) was 1.08, the relative viability (NCI-H1355; first compound 0.8 µM) was 0.884 and the relative viability (NCI-H1355; first compound 2.53 µM) was 0.943. It also gave a relative viability (NCI-H1355; first compound 8 µM) of 1.01, a relative viability (NCI-H1395; first compound 0.08 µM) of 0.997 and a relative viability (NCI-H1395; first compound 0.253 µM) of 1.11. For the same molecule, the relative viability (NCI-H1395; first compound 0.8 µM) was 0.949, the relative viability (NCI-H1395; first compound 2.53 µM) was 1.49 and the relative viability (NCI-H1395; first compound 8 µM) was 1.06. It also gave a relative viability (NCI-H1437; first compound 0.08 µM) of 0.757, a relative viability (NCI-H1437; first compound 0.253 µM) of 0.785 and a relative viability (NCI-H1437; first compound 0.8 µM) of 0.746. For the same molecule, the relative viability (NCI-H1437; first compound 2.53 µM) was 0.754, the relative viability (NCI-H1437; first compound 8 µM) was 0.712 and the relative viability (NCI-H1734; first compound 0.08 µM) was 0.981. The relative viability (NCI-H1734; first compound 0.253 µM) was 1.13, the relative viability (NCI-H1734; first compound 0.8 µM) was 1.02 and the relative viability (NCI-H1734; first compound 2.53 µM) was 0.362. It also gave a relative viability (NCI-H1734; first compound 8 µM) of 0.908, a relative viability (NCI-H1792; first compound 0.08 µM) of 0.865 and a relative viability (NCI-H1792; first compound 0.253 µM) of 0.835. For the same molecule, the relative viability (NCI-H1792; first compound 0.8 µM) was 0.675, the relative viability (NCI-H1792; first compound 2.53 µM) was 0.68 and the relative viability (NCI-H1792; first compound 8 µM) was 0.798. The relative viability (NCI-H2009; first compound 0.08 µM) was 0.984, the relative viability (NCI-H2009; first compound 0.253 µM) was 0.88 and the relative viability (NCI-H2009; first compound 0.8 µM) was 0.901. For the same molecule, the relative viability (NCI-H2009; first compound 2.53 µM) was 0.939, the relative viability (NCI-H2009; first compound 8 µM) was 0.762 and the relative viability (NCI-H2087; first compound 0.08 µM) was 1.07. The relative viability (NCI-H2087; first compound 0.253 µM) was 0.975, the relative viability (NCI-H2087; first compound 0.8 µM) was 1.1 and the relative viability (NCI-H2087; first compound 2.53 µM) was 0.868. The relative viability (NCI-H2087; first compound 8 µM) was 0.776, the relative viability (NCI-H2170; first compound 0.08 µM) was 0.269 and the relative viability (NCI-H2170; first compound 0.253 µM) was 0.276. It also gave a relative viability (NCI-H2170; first compound 0.8 µM) of 0.255, a relative viability (NCI-H2170; first compound 2.53 µM) of 0.216 and a relative viability (NCI-H2170; first compound 8 µM) of 0.276. The relative viability (NCI-H2228; first compound 0.08 µM) was 1.11, the relative viability (NCI-H2228; first compound 0.253 µM) was 1.19 and the relative viability (NCI-H2228; first compound 0.8 µM) was 1.1. For the same molecule, the relative viability (NCI-H2228; first compound 2.53 µM) was 0.903, the relative viability (NCI-H2228; first compound 8 µM) was 1.03 and the relative viability (NCI-H2405; first compound 0.08 µM) was 1.07. For the same molecule, the relative viability (NCI-H2405; first compound 0.253 µM) was 0.772, the relative viability (NCI-H2405; first compound 0.8 µM) was 1 and the relative viability (NCI-H2405; first compound 2.53 µM) was 1.07. The relative viability (NCI-H2405; first compound 8 µM) was 1.06, the relative viability (NCI-H596; first compound 0.08 µM) was 1.08 and the relative viability (NCI-H596; first compound 0.253 µM) was 1.13. For the same molecule, the relative viability (NCI-H596; first compound 0.8 µM) was 1.07, the relative viability (NCI-H596; first compound 2.53 µM) was 0.87 and the relative viability (NCI-H596; first compound 8 µM) was 1.14. It also gave a relative viability (NCI-H647; first compound 0.08 µM) of 0.896, a relative viability (NCI-H647; first compound 0.253 µM) of 1.38 and a relative viability (NCI-H647; first compound 2.53 µM) of 0.791. The relative viability (NCI-H647; first compound 8 µM) was 0.584, the relative viability (NCI-H661; first compound 0.08 µM) was 0.51 and the relative viability (NCI-H661; first compound 0.253 µM) was 0.554. For the same molecule, the relative viability (NCI-H661; first compound 0.8 µM) was 0.43, the relative viability (NCI-H661; first compound 2.53 µM) was 0.396 and the relative viability (NCI-H661; first compound 8 µM) was 0.407. For the same molecule, the relative viability (SK-LU-1; first compound 0.08 µM) was 0.795, the relative viability (SK-LU-1; first compound 0.253 µM) was 0.91 and the relative viability (SK-LU-1; first compound 0.8 µM) was 0.843. The relative viability (SK-LU-1; first compound 2.53 µM) was 0.795, the relative viability (SK-LU-1; first compound 8 µM) was 0.577 and the relative viability (SK-MES-1; first compound 0.08 µM) was 0.442. It also gave a relative viability (SK-MES-1; first compound 0.253 µM) of 0.441, a relative viability (SK-MES-1; first compound 0.8 µM) of 0.397 and a relative viability (SK-MES-1; first compound 8 µM) of 0.429.
